{"source": "patent US5051132A", "about": "“Lyophilized preparation of 6-(3-dimethylaminopropionyl)forskolin” (priority 1989, dated 1991)", "assay": "Stability and solubility of 6-(3-dimethylaminopropionyl)forskolin in aqueous solution", "format": "physicochemical", "data": [{"smiles": "C=CC1(C)CC(=O)C2(O)C(C)(O1)C(OC(C)=O)C(OC(=O)CCN(C)C)C1C(C)(C)CCC(O)C12C", "note": "(centres unmarked) [6-(3-dimethylaminopropionyl)forskolin]", "values": [{"measurement": "stability in the state of aqueous solution", "setting": "aqueous solution", "value": "unstable in the state of aqueous solution"}, {"measurement": "stability and solubility in the pH range of about 3 to about 6", "setting": "pH about 3 to about 6", "value": "keeps stable and exhibits a good solubility"}]}]}
